{"source": "patent US20230285389A1", "about": "“USE OF CSF-1R KINASE INHIBITOR” (Shanghai Runshi Medical Technology Co., Ltd, priority 2020, published 2023)", "key": {"[1]": {"system": "mouse colon cancer MC38 xenografts", "assay": "Pharmacodynamic experiment, growth of subcutaneous MC38 xenografts", "type": "in vivo", "details": "for TV (mean ±SEM) D0: day 0 (baseline); for TGI D7 / TV (mean ±SEM) D7: day 7; for TGI D14 / TV (mean ±SEM) D14: day 14; for TGI D20 / TV (mean ±SEM) D20: day 20; for TGI D24 / TV (mean ±SEM) D24: day 24", "procedure": "MC38 cells in good condition were re-suspended to 25 million cells/mL. 200 µL of cell suspension was inoculated subcutaneously in the right armpit of each mouse. When the tumor cells formed subcutaneous xenograft in the mice and grew to an average volume of approximately 100 mm^3, the mice were randomly assigned to the dosing group and the control group. The test compounds were prepared at the desired concentrations and corresponding equal amount of solvent was used as a solvent control. The drugs were administrated orally, and administrated once per day for 24 consecutive days.\nDuring the dosing period, the xenograft volumes of the mice and the weights of the mice were measured every 2-4 days. The experiment was terminated 24 days after dosing.\nThe tumor volume (TV) was calculated as TV = ½×a×b^2, where “a” and “b” are the length and width of an xenograft, respectively.\nStatistical tests were performed using the t test, with p≤0.05 representing a significant difference."}, "[2]": {"system": "CD8+ T cells co-cultured with CSF-1-induced BMDMs", "details": "BMDMs pre-incubated with compound; co-culture 72 h"}, "[3]": {"system": "CSF-1-induced human macrophages (PBMC-derived CD14+ monocytes)", "assay": "Survival of CSF-1-induced human macrophages from PBMC (CCK-8)", "type": "cell-based", "details": "Homo sapiens, 168 h, read-out: IC50 inhibition of cell survival, PBMC (CSF-1)", "procedure": "Cryopreserved human-derived peripheral blood (peripheral blood from healthy donors) mononuclear cells (PBMCs) were taken out of liquid nitrogen for recovery. After recovery, the cells were re-suspended at 50 million/mL with the running buffer and DNAase I was added at a final concentration of 100 µg/mL and the plate was allowed for incubation for 15 min at room temperature. After centrifugation at 300 g for 5 min, the supernatant was discarded. The pellet was re-suspended at 50 million cells/mL with the running buffer, and the suspension was filtered through a 70 µM filter screen into a flow tube. The cells were sorted by using CD14+ monocyte negative selection beads sorting kit from […] company. According to the manufacture’s instructions, the specific experimental procedures were as follows.\nAfter cells were re-suspended at 50 million cells/mL, 50 µL of the cocktail was added to each one mL of samples. The samples were incubated at room temperature for 5 min. The magnetic beads were vortexed for 30 sec, and added to the samples. The samples were incubated for further 5 min. The sample volumes were made up to 2.5 mL. The samples were placed on a magnetic frame ([…], #18000) for 2.5 min. […] The plate was placed in an incubator at 37° C. for 2-4 h, and then was read with an adjustable wavelength microplate reader setting at a wavelength of 450 nm."}, "[4]": {"system": "IL4/IL13-polarized murine BMDMs", "assay": "M2-biased polarization phenotype of BMDMs, flow cytometry of surface markers", "type": "cell-based, BALB/c mice", "details": "mouse-derived BMDM, 48 h", "procedure": "BALB/c mice (female, 6 weeks old, healthy) were sacrificed. Bone marrow cells were taken from their femurs and tibia, and seeded into a 6-well culture plate at appropriate densities ([…], per well) after erythrobiasis treatment. 100 ng/mL of CSF-1 factor was added to each well to induce macrophages (Bone marrow-derived macrophages, BMDM). After 7 days of induction, the cell culture medium was changed. CSF-1 factor was added at the same concentration as above, and M2 polarization of macrophages was induced with 10 ng/mL of IL4 and 10 ng/mL of IL13. While inducing polarization, compounds at various concentrations were added into test wells and negative control wells. After 48 h, the cells were harvested for flow cytometric analysis.\nCells in good condition were collected, and first washed twice with PBS. After washing, each sample was re-suspended with 100 µL of PBS and 0.5 µL of the fluorescent antibody prepared according to the manufacturer’s instructions to distinguish dead and live cells was added. The samples were stained in the dark at 4° C. for 30 min. After 30 min, the samples were washed twice with 1mL of the running buffer and the tubes were centrifuged at 300 g for 5 min at 4° C. The blocking antibody diluent was prepared by adding 2 µL of blocking antibody TruStain fcX™ (anti-mouse CD16/32) per 100 µL running buffer and was added on the basis of the 100 µL system of each sample. After blocking for 10 min, according to the manufacturer’s instructions, the fluorescent antibody corresponding to the surface protein was added to the samples, and the reactant was allowed for incubation at 4° C. for 30 min. At this step, a single staining control and an FMO control were set. Then, the samples were washed twice with 1 mL of the running buffer, and centrifuged at 300 g for 5 min at 4° C. each time.\nIf only surface proteins were to be examined, after centrifugation, the samples were re-suspended with 300 µL of PBS and immediately input into machines, or the samples were fixed with 4% paraformaldehyde for 15 min, and centrifuged at 500 g for 7 min. […]"}}, "data": [{"smiles": "CNC(=O)c1cccc2cc(Oc3ccnc(NC(=O)c4ccc(N5C[C@@H](C)N[C@@H](C)C5)cc4)c3)ccc12", "note": "[Compound I]", "values": [{"measurement": "TV (mean ±SEM) D0", "setting": "[1]; 2.5 mg/kg oral once per day", "value": "79±13", "unit": "mm3"}, {"measurement": "TGI D7", "setting": "[1]; 2.5 mg/kg oral once per day", "value": 63.3, "unit": "%"}, {"measurement": "TV (mean ±SEM) D7", "setting": "[1]; 2.5 mg/kg oral once per day", "value": "119±17", "unit": "mm3"}, {"measurement": "TGI D14", "setting": "[1]; 2.5 mg/kg oral once per day", "value": 63.0, "unit": "%"}, {"measurement": "TV (mean ±SEM) D14", "setting": "[1]; 2.5 mg/kg oral once per day", "value": "232±39", "unit": "mm3"}, {"measurement": "TGI D20", "setting": "[1]; 2.5 mg/kg oral once per day", "value": 74.6, "unit": "%"}, {"measurement": "TV (mean ±SEM) D20", "setting": "[1]; 2.5 mg/kg oral once per day", "value": "281±59", "unit": "mm3"}, {"measurement": "TGI D24", "setting": "[1]; 2.5 mg/kg oral once per day", "value": 75.3, "unit": "%"}, {"measurement": "TV (mean ±SEM) D24", "setting": "[1]; 2.5 mg/kg oral once per day", "value": "348±80", "unit": "mm3"}, {"measurement": "TV (mean ±SEM) D0", "setting": "[1]; 10 mg/kg oral once per day", "value": "79±12", "unit": "mm3"}, {"measurement": "TGI D7", "setting": "[1]; 10 mg/kg oral once per day", "value": 100.9, "unit": "%"}, {"measurement": "TV (mean ±SEM) D7", "setting": "[1]; 10 mg/kg oral once per day", "value": "78±15", "unit": "mm3"}, {"measurement": "TGI D14", "setting": "[1]; 10 mg/kg oral once per day", "value": 90.1, "unit": "%"}, {"measurement": "TV (mean ±SEM) D14", "setting": "[1]; 10 mg/kg oral once per day", "value": "120±42", "unit": "mm3"}, {"measurement": "TGI D20", "setting": "[1]; 10 mg/kg oral once per day", "value": 95.2, "unit": "%"}, {"measurement": "TV (mean ±SEM) D20", "setting": "[1]; 10 mg/kg oral once per day", "value": "117±46", "unit": "mm3"}, {"measurement": "TGI D24", "setting": "[1]; 10 mg/kg oral once per day", "value": 93.4, "unit": "%"}, {"measurement": "TV (mean ±SEM) D24", "setting": "[1]; 10 mg/kg oral once per day", "value": "150±64", "unit": "mm3"}, {"measurement": "growth of murine colon cancer MC38 cell xenografts", "setting": "[1]; oral once per day for 24 days", "value": "significantly inhibited"}, {"measurement": "CD8+ T cell proliferation compared to solvent control", "setting": "[2]", "value": "substantially increased"}, {"measurement": "IC50", "setting": "[3]", "value": "30.5 ± 5.1", "unit": "nM"}, {"measurement": "expression level of surface marker CD206 (M2-type marker)", "setting": "[4]; 25, 50 and 100 nM", "value": "significantly inhibit"}, {"measurement": "expression level of surface marker CD86 (M1-type marker)", "setting": "[4]", "value": "significantly enhance"}, {"measurement": "expression level of surface marker MHC-II (M1-type marker)", "setting": "[4]", "value": "significantly enhance"}]}]}
